Reference: US20250312349A1, “COMPOSITION AND METHODS OF TREATING INTRACELLULAR PATHOGEN INFECTION” (UNIVERSITY HOSPITALS CLEVELAND MEDICAL CENTER, priority 2024, published 2025)

What was measured:
[1] = tested on: LAMP1; experiment: Immunofluorescence of LAMP1 accumulation around parasites; format: cell-based; details: CHO cells and brain endothelial cells, 1 μM, 7 hours
Protocol: (§1) FIGS. 3(A-L) illustrate images and graphs showing T. gondii killing induced by Src inhibition is mediated by autophagy. (A-C) CHO cells and primary brain endothelial cells expressing WT or DN EGFR were infected with RFP-T. gondii and treated with Saracatinib 1 μM for 5 hours before staining with an anti-LC3 antibody. Accumulation of LC3 around the parasites was assessed by confocal microscopy. Scale bar, 10 μm. (D-F) CHO cells and primary brain endothelial cells expressing WT or DN EGFR were infected with RFP-T. gondii and treated with Saracatinib 1 μM for 7 hours before staining with anti-LAMP1 antibody. Accumulation of LAMP1 around parasites was assessed as above. G-I) CHO cells and primary brain endothelial cells expressing WT or DN EGFR were transfected with control siRNA or ULK1 siRNA. Relative density of ULK1 was normalized to total Actin followed by normalization relative to Ctr siRNA. […] Cells were treated with or without Saracatinib and infected with RH T. gondii. Monolayers were examined at 24 h. […]
(§2) Mammalian cells were infected with RFP-T. gondii (RH) and fixed with 4% paraformaldehyde. […] LC3 and LAMP1 were evaluated for accumulation at 5- and 7 hours post-infection, respectively. […] Parasites were evaluated blindly in multiple random fields of view and 100 parasites were examined per group. […]

[2] = tested on: Akt; experiment: Immunoblot of phospho-S473 Akt in T. gondii-infected CHO cells; format: cell-based, Chinese Hamster; details: lysates at 2 h
Protocol: FIGS. 4(A-C) illustrate Src inhibition induces T. gondii killing by impairing Akt activation. (A) CHO cells were challenged with RH-T. gondii. Cell lysates collected at 2 h were probed for Akt and phospho-S473 Akt. Relative density of phospho-Akt was normalized to total Akt and compared to the uninfected sample. Densitometry graph shown as mean±SEM from 3 independent experiments. (B-C) CHO cells or primary brain endothelial cells were transfected with plasmids encoding HA-tagged CA- or HA-tagged WT-Akt. Lysates were probed for actin, HA, Akt and phospho-S473 Akt. Cells were challenged with T. gondii and treated with Saracatinib (1 μM). Cell lysates collected at 2 h were probed for Akt and phospho-S473 Akt. Relative density of phospho-Akt and densitometries were examined as above. Percentages of infected cells and tachyzoites per 100 cells were assessed at 24 h. Data are shown as mean±SEM. The graphs show data from 6 independent monolayers pooled from 3 different experiments. Data points are shown as circles, triangles, or squares corresponding to individual monolayers within each experiment. […]

[3] = tested on: CHO cells; experiment: MTT assay of potential cell toxicity, CHO cells; format: cell-based, Chinese Hamster; details: 1 μM, 24 hrs
Protocol: FIG. 9 illustrates graphs showing the assessment of potential cell toxicity of Saracatinib. CHO cells and retinal pigment epithelial cells (RPE) were treated with various concentrations of Saracatinib (1 nM-1000 μM) followed by MTT assay 24 hrs. after incubation with Saracatinib. The data are pooled from duplicate or triplicate independent samples obtained in 3 different experiments. […] Data are shown as mean±SEM. Significance was determined by comparing all groups to the control using one-way ANOVA with Holm-Sidak multiple comparison test (*p<0.05). (PDF)

[4] = tested on: PTEN; experiment: Confocal microscopy of PTEN and GRA7 around parasites in CHO cells; format: cell-based, Chinese Hamster; details: RFP-T. gondii
Protocol: Mammalian cells were infected with RFP-T. gondii (RH) and fixed with 4% paraformaldehyde. Cells were stained with antibodies against LC3 (MBL International, Woburn, MA), LAMP1 (DSHB, Iowa City, IA), or GRA7 (gift from John Boothroyd, Stanford University, Stanford, CA) followed by a fluorescently conjugated secondary antibodies (Jackson ImmunoResearch Laboratories, West Grove, PA). LC3 and LAMP1 were evaluated for accumulation at 5- and 7 hours post-infection, respectively. Cells were stained with antibodies against PTEN (Santa Cruz Biotechnology, Dallas, TX) or anti-phospho S473 Akt (Novus, Centennial, CO). Frozen brain sections were stained with antibodies against PTEN (Novus, Centennial, CO), phospho S473 Akt, SAG-1 (Invitrogen, Waltham, MA) or T. gondii (Biogenex, Fremont, CA). Parasites were evaluated blindly in multiple random fields of view and 100 parasites were examined per group. In-out assays were performed as described using RFP-T gondii, anti-SAG-1 antibody (Invitrogen, Waltham, MA) and an Alexa Fluor 488-conjugated secondary antibody. Olympus FV1200 confocal microscope (Evident/Olympus, Waltham, MA) equipped with UPlanSApa 60× and 100× 1.45NA objectives was used to evaluate the slides.

[5] = tested on: PI3K; experiment: Immunoblot of phospho-Y199 PI3K in T. gondii-infected CHO cells; format: cell-based, Chinese Hamster; details: lysates at 2 h
Protocol: Membranes were probed with antibodies against Src, phospho-Y416 Src, Akt, phospho-S473 Akt, PTEN, phospho-[…] PTEN, PI3K, phospho-Y458/Y199 PI3K, ULK1, EGFR, HA tag (all from Cell Signaling, Danvers, MA), phospho-Y240 PTEN (Sigma) and Actin (Santa Cruz Biotechnologies) followed by incubation with secondary antibodies (Cell Signaling and Santa Cruz Biotechnologies). Three independent experiments were performed.

[6] = tested on: LC3; experiment: Immunofluorescence of LC3 accumulation around parasites; format: cell-based; details: CHO cells and brain endothelial cells expressing DN EGFR, 1 μM, 5 hours
Protocol: as §1, §2

[7] = tested on: ME49 T. gondii; experiment: Ocular and cerebral toxoplasmosis in Becn1+/+ and Becn1+/- mice; format: in vivo; details: 10 mg kg-1, 2 weeks
[8] = tested on: EGS T. gondii cysts; experiment: Parasite cysts in CHO cells infected with EGS T. gondii; format: cell-based, Toxoplasma gondii; details: Saracatinib 1 μM, 4 days
Text: We infected CHO cells with EGS T. gondii, a strain of the parasite that spontaneously form cysts in vitro.

[9] = tested on: retinal pigment epithelial cells (RPE); experiment: MTT assay of potential cell toxicity, RPE cells; format: cell-based, human; details: 1 μM, 24 hrs
Protocol: Data are shown as mean±SEM. […] Three independent experiments were performed.

## CN1CCN(CCOc2cc(OC3CCOCC3)c3c(Nc4c(Cl)ccc5c4OCO5)ncnc3c2)CC1 [Saracatinib, N-(5-chloro-1,3-benzodioxol-4-yl)-7-(2-(4-methylpiperazin-1-yl)ethoxy)-5-(tetrahydro-2H-pyran-4-yloxy)quinazolin-4-amine]
[1]
  accumulation of LAMP1 around intracellular parasites: accumulation of the lysosomal marker, LAMP1, was observed
[2]
  T. gondii-induced phosphorylation of Akt at Ser473: abrogated
[3]
  cell toxicity (MTT): non-toxic
[4]
  association of PTEN to the PVM: co-expression of PTEN and GRA7
[5]
  Y199 phosphorylation of PI3K: inhibited
[6]
  accumulation of LC3 around the parasites: induced accumulation
[7]; Becn 1+/+ mice
  ocular and cerebral histopathology: improvement
  parasite load: improvement
[7]; autophagy-deficient Becn 1+/- mice
  response of histopathology and parasite loads: did not respond
[8]
  morphology of bradyzoites in remaining cysts: altered morphology
  reduction in the number of cysts: ~60%
[9]
  cell toxicity (MTT): non-toxic
